Results: patent US7109181B2, “Joint lubrication with P2Y purinergic receptor agonists” (Inspire Pharmaceuticals, Inc., priority 2001, dated 2006)

What follows are molecules tested on synovial fibroblasts (assay: Measurement of cytosolic calcium in cultured synovial fibroblasts (Fluo-3 AM, FLIPR)). Conditions: synovial fibroblasts stimulated with increasing concentrations of P2Y receptor agonists; FIG. 1.
Format: cell-based
Source text: The pharmaceutical utility of compounds of this invention is indicated by the cytosolic calcium assay for P2Y2 and other P2Y receptor activity. This widely used assay, as described in Pendergast, et al. (2001) (Bioorg. Med. Chem. Lett. 11, 157-160), relies on the measurement of increased cytosolic calcium levels to determine the biological activity of compounds that activate receptors linked via G-proteins to phospholipase C. The efficacy of these compounds is reflected in their ability to alter and/or enhance the secretory activity of the joints, including but not limited to, the knee, hip, and shoulder, to effectuate the agent's target response. The target response is the improvement of joint lubrication and movement.
A conventional technique was used to detect increases in cytosolic calcium induced by P2Y receptor agonists, a technique familiar to those skilled in the art. Cells were seeded in 96-well plates and used for cytosolic calcium assays. On the day of the assay, the growth medium was aspirated and replaced with a solution of Fluo-3 AM (2.5 μM final concentration) in an assay buffer consisting of (mM): KCl (10), NaCl (118), CaCl2 (2.5), MgCl2 (1), HEPES (20), glucose (10), pH 7.4. Probenecid (Sigma Chemical Co.) was added to the dye load and dye wash medium at a working concentration of 2.5 mM to increase dye retention in the cells. After a 60 minute incubation with Fluo-3 AM at 25° C., cells were washed free of dye (Columbus Plate Washer, TECAN U.S., Inc., Research Triangle Park, N.C.) and were stimulated with increasing concentrations of P2Y receptor agonists. Intracellular calcium levels were simultaneously monitored in each well by measuring the changes in fluorescence intensity using the FLIPR (Molecular Devices Corp., Sunnyvale, Calif.).
Synovial fibroblasts were subjected to the cytosolic calcium assay described above. […] The induction of increases in cytosolic calcium by ATP and UTP in synovial fibroblasts indicated the pharmaceutical utility of P2Y2 receptor agonists in the joint.

Row | SMILES | effect on cytosolic calcium levels
1 | CSc1nc(N)c2ncn([C@@H]3O[C@H](COP(=O)(O)OP(=O)(O)O)[C@@H](O)[C@H]3O)c2n1 [2-methylthioADP, reference compound] | did not alter cytosolic calcium concentration
2 | O=c1ccn([C@@H]2O[C@H](COP(=O)(O)OP(=O)(O)OP(=O)(O)O)[C@@H](O)[C@H]2O)c(=O)[nH]1 [UTP, uridine-5′-triphosphate] | stimulate increases in cytosolic calcium
3 | Nc1ncnc2c1ncn2[C@@H]1O[C@H](COP(=O)(O)OP(=O)(O)OP(=O)(O)O)[C@@H](O)[C@H]1O [ATP, adenosine-5′-triphosphate] | stimulate increases in cytosolic calcium
